From ChEMBL document CHEMBL2429777, “Synthesis and antibacterial activity evaluation of 2,6-bis(6-substituted-1,2,4-triazolo[3,4-b][1,3,4]thiadiazol-3-yl)pyridine derivatives” (2013)
Values after ≈ are worked out from the molar mass of the structure shown.

Legend:
Escherichia coli [1] = assay: Antibacterial activity against Escherichia coli by serial dilution method
Pseudomonas aeruginosa [2] = assay: Antibacterial activity against Pseudomonas aeruginosa at 250 ug/tube after 24 hrs by cylinder-plate method; type: functional
Pseudomonas aeruginosa [3] = assay: Antibacterial activity against Pseudomonas aeruginosa by serial dilution method; type: functional
Streptococcus pneumoniae [4] = assay: Antibacterial activity against Streptococcus pneumoniae by serial dilution method; type: functional
Escherichia coli [5] = assay: Antibacterial activity against Escherichia coli at 250 ug/tube after 24 hrs by cylinder-plate method; type: functional
Staphylococcus aureus [6] = assay: Antibacterial activity against Staphylococcus aureus by serial dilution method; type: functional
Streptococcus pneumoniae [7] = assay: Antibacterial activity against Streptococcus pneumoniae at 250 ug/tube after 24 hrs by cylinder-plate method; type: functional
Bacillus subtilis [8] = assay: Antibacterial activity against Bacillus subtilis by serial dilution method; type: functional
Staphylococcus aureus [9] = assay: Antibacterial activity against Staphylococcus aureus at 250 ug/tube after 24 hrs by cylinder-plate method; type: functional
Bacillus subtilis [10] = assay: Antibacterial activity against Bacillus subtilis at 250 ug/tube after 24 hrs by cylinder-plate method; type: functional
Bacillus subtilis [11] = assay: Antibacterial activity against Bacillus subtilis at 100 ug/tube after 24 hrs by cylinder-plate method; type: functional
Pseudomonas aeruginosa [12] = assay: Antibacterial activity against Pseudomonas aeruginosa at 100 ug/tube after 24 hrs by cylinder-plate method; type: functional
Escherichia coli [13] = assay: Antibacterial activity against Escherichia coli at 100 ug/tube after 24 hrs by cylinder-plate method; type: functional
Streptococcus pneumoniae [14] = assay: Antibacterial activity against Streptococcus pneumoniae at 100 ug/tube after 24 hrs by cylinder-plate method; type: functional
Staphylococcus aureus [15] = assay: Antibacterial activity against Staphylococcus aureus at 100 ug/tube after 24 hrs by cylinder-plate method; type: functional

Molecule	MIC (Escherichia coli [1])	diameter of the inhibition zone (DIZ) (Pseudomonas aeruginosa [2])	MIC (Pseudomonas aeruginosa [3])	MIC (Streptococcus pneumoniae [4])	diameter of the inhibition zone (DIZ) (Escherichia coli [5])	MIC (Staphylococcus aureus [6])	diameter of the inhibition zone (DIZ) (Streptococcus pneumoniae [7])	MIC (Bacillus subtilis [8])	diameter of the inhibition zone (DIZ) (Staphylococcus aureus [9])	diameter of the inhibition zone (DIZ) (Bacillus subtilis [10])	diameter of the inhibition zone (DIZ) (Bacillus subtilis [11])	diameter of the inhibition zone (DIZ) (Pseudomonas aeruginosa [12])	diameter of the inhibition zone (DIZ) (Escherichia coli [13])	diameter of the inhibition zone (DIZ) (Streptococcus pneumoniae [14])	diameter of the inhibition zone (DIZ) (Staphylococcus aureus [15])	inhibition zone (IZ) (Bacillus subtilis [11])	inhibition zone (IZ) (Streptococcus pneumoniae [14])
Cc1nn2c(-c3cccc(-c4nnc5sc(C)nn45)n3)nnc2s1	64 mg/L (≈ 180 µM)	12 mm	128 mg/L (≈ 360 µM)	128 mg/L (≈ 360 µM)	14 mm	128 mg/L (≈ 360 µM)	12 mm	> 128 mg/L	12 mm	10 mm	–	–	–	–	–	–	–
O=[N+]([O-])c1cccc(-c2nn3c(-c4cccc(-c5nnc6sc(-c7cccc([N+](=O)[O-])c7)nn56)n4)nnc3s2)c1	64 mg/L (≈ 112 µM)	12 mm	128 mg/L (≈ 225 µM)	64 mg/L (≈ 112 µM)	14 mm	128 mg/L (≈ 225 µM)	14 mm	128 mg/L (≈ 225 µM)	13 mm	11 mm	–	–	–	–	–	–	–
c1cc(-c2nnc3sc(-c4ccncc4)nn23)nc(-c2nnc3sc(-c4ccncc4)nn23)c1	64 mg/L (≈ 133 µM)	13 mm	128 mg/L (≈ 266 µM)	128 mg/L (≈ 266 µM)	14 mm	128 mg/L (≈ 266 µM)	13 mm	> 128 mg/L	12 mm	10 mm	–	–	–	–	–	–	–
Ic1cccc(-c2nn3c(-c4cccc(-c5nnc6sc(-c7cccc(I)c7)nn56)n4)nnc3s2)c1	32 mg/L (≈ 43.8 µM)	15 mm	64 mg/L (≈ 87.5 µM)	64 mg/L (≈ 87.5 µM)	18 mm	32 mg/L (≈ 43.8 µM)	14 mm	64 mg/L (≈ 87.5 µM)	16 mm	14 mm	–	–	–	–	–	–	–
CC1(C)S[C@@H]2[C@H](NC(=O)[C@H](N)c3ccccc3)C(=O)N2[C@H]1C(=O)[O-].[Na+] [AMPICILLIN SODIUM]	–	–	2 mg/L	2 mg/L	–	1 mg/L	–	0.5 mg/L	–	–	21 mm	17 mm	17 mm	18 mm	23 mm	–	–
Clc1cccc(-c2nn3c(-c4cccc(-c5nnc6sc(-c7cccc(Cl)c7)nn56)n4)nnc3s2)c1	64 mg/L (≈ 117 µM)	14 mm	64 mg/L (≈ 117 µM)	32 mg/L (≈ 58.3 µM)	15 mm	64 mg/L (≈ 117 µM)	16 mm	64 mg/L (≈ 117 µM)	14 mm	13 mm	–	–	–	–	–	–	–
GENTAMICIN	–	–	1 mg/L	2 mg/L	–	2 mg/L	–	2 mg/L	–	–	–	–	–	–	–	22 mm	21 mm
COc1ccc(-c2nn3c(-c4cccc(-c5nnc6sc(-c7ccc(OC)cc7)nn56)n4)nnc3s2)cc1	32 mg/L (≈ 59.3 µM)	12 mm	128 mg/L (≈ 237 µM)	64 mg/L (≈ 119 µM)	16 mm	64 mg/L (≈ 119 µM)	14 mm	64 mg/L (≈ 119 µM)	14 mm	14 mm	–	–	–	–	–	–	–
c1cncc(-c2nn3c(-c4cccc(-c5nnc6sc(-c7cccnc7)nn56)n4)nnc3s2)c1	64 mg/L (≈ 133 µM)	13 mm	128 mg/L (≈ 266 µM)	128 mg/L (≈ 266 µM)	14 mm	128 mg/L (≈ 266 µM)	13 mm	128 mg/L (≈ 266 µM)	12 mm	11 mm	–	–	–	–	–	–	–
Cc1ccc(-c2nn3c(-c4cccc(-c5nnc6sc(-c7ccc(C)cc7)nn56)n4)nnc3s2)cc1	64 mg/L (≈ 126 µM)	10 mm	> 128 mg/L	128 mg/L (≈ 252 µM)	14 mm	128 mg/L (≈ 252 µM)	13 mm	> 128 mg/L	13 mm	10 mm	–	–	–	–	–	–	–
Clc1ccc(-c2nn3c(-c4cccc(-c5nnc6sc(-c7ccc(Cl)cc7)nn56)n4)nnc3s2)cc1	32 mg/L (≈ 58.3 µM)	15 mm	32 mg/L (≈ 58.3 µM)	32 mg/L (≈ 58.3 µM)	17 mm	32 mg/L (≈ 58.3 µM)	16 mm	64 mg/L (≈ 117 µM)	15 mm	14 mm	–	–	–	–	–	–	–
c1ccc(-c2nn3c(-c4cccc(-c5nnc6sc(-c7ccccc7)nn56)n4)nnc3s2)cc1	128 mg/L (≈ 267 µM)	10 mm	> 128 mg/L	128 mg/L (≈ 267 µM)	12 mm	128 mg/L (≈ 267 µM)	12 mm	> 128 mg/L	12 mm	10 mm	–	–	–	–	–	–	–
O=[N+]([O-])c1ccc(-c2nn3c(-c4cccc(-c5nnc6sc(-c7ccc([N+](=O)[O-])cc7)nn56)n4)nnc3s2)cc1	64 mg/L (≈ 112 µM)	12 mm	128 mg/L (≈ 225 µM)	64 mg/L (≈ 112 µM)	15 mm	128 mg/L (≈ 225 µM)	15 mm	128 mg/L (≈ 225 µM)	13 mm	11 mm	–	–	–	–	–	–	–
c1cc(-c2nnc3sc(-c4ccco4)nn23)nc(-c2nnc3sc(-c4ccco4)nn23)c1	64 mg/L (≈ 139 µM)	15 mm	32 mg/L (≈ 69.6 µM)	128 mg/L (≈ 279 µM)	15 mm	64 mg/L (≈ 139 µM)	12 mm	128 mg/L (≈ 279 µM)	14 mm	12 mm	–	–	–	–	–	–	–
